Source: paper PMC6812191 (Heliyon, 2019)

Columns and labels:
Type in all cases: cell-based
hERG potassium channel [1] = molecular target: hERG potassium channel (Homo sapiens, UniProt Q12809, S624A); test: whole-cell patch clamp, concentration response
hERG potassium channel [2] = molecular target: hERG potassium channel (Homo sapiens, UniProt Q12809, T623A); test: whole-cell patch clamp, inhibition at […]
hERG potassium channel [3] = molecular target: hERG potassium channel (Homo sapiens, UniProt Q12809, F656A); test: whole-cell patch clamp, inhibition at […]
Chain of hERG potassium channel (Homo sapiens, UniProt Q12809, F656A) (Q12809 whole entry F656A): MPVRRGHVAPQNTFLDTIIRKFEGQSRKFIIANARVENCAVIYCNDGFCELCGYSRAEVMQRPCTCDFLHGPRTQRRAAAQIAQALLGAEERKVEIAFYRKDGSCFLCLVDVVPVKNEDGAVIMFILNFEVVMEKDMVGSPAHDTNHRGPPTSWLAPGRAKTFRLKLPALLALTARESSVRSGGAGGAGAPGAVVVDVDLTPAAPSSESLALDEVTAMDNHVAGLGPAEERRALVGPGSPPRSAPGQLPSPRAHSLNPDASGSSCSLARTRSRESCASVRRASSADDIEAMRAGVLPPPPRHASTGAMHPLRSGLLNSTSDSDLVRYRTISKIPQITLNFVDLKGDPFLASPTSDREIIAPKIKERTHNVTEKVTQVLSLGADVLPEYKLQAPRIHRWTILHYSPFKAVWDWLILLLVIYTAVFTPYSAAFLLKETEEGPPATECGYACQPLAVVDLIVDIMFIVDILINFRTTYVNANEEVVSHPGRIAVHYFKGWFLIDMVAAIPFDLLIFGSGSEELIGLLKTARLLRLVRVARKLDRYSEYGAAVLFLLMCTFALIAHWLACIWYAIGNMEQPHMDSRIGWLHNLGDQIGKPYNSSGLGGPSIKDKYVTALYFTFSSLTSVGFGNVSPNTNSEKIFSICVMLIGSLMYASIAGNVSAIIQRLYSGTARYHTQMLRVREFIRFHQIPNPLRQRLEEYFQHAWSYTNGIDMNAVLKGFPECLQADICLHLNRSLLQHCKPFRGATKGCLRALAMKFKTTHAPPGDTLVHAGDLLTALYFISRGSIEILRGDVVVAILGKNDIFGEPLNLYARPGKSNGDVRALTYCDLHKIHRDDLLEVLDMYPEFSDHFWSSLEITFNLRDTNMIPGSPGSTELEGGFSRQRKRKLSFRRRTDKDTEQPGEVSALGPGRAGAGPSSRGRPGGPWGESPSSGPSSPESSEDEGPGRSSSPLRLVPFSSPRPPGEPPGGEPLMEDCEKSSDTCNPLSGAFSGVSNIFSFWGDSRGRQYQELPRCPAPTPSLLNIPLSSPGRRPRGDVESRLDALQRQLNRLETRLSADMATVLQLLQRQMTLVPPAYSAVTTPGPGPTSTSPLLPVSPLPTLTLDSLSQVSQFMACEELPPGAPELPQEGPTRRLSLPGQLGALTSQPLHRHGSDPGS

hERG potassium channel [4] = molecular target: hERG potassium channel (Homo sapiens, UniProt Q12809, Y652A); test: whole-cell patch clamp, inhibition at […]
Chain of hERG potassium channel (Homo sapiens, UniProt Q12809, Y652A) (Q12809 whole entry Y652A): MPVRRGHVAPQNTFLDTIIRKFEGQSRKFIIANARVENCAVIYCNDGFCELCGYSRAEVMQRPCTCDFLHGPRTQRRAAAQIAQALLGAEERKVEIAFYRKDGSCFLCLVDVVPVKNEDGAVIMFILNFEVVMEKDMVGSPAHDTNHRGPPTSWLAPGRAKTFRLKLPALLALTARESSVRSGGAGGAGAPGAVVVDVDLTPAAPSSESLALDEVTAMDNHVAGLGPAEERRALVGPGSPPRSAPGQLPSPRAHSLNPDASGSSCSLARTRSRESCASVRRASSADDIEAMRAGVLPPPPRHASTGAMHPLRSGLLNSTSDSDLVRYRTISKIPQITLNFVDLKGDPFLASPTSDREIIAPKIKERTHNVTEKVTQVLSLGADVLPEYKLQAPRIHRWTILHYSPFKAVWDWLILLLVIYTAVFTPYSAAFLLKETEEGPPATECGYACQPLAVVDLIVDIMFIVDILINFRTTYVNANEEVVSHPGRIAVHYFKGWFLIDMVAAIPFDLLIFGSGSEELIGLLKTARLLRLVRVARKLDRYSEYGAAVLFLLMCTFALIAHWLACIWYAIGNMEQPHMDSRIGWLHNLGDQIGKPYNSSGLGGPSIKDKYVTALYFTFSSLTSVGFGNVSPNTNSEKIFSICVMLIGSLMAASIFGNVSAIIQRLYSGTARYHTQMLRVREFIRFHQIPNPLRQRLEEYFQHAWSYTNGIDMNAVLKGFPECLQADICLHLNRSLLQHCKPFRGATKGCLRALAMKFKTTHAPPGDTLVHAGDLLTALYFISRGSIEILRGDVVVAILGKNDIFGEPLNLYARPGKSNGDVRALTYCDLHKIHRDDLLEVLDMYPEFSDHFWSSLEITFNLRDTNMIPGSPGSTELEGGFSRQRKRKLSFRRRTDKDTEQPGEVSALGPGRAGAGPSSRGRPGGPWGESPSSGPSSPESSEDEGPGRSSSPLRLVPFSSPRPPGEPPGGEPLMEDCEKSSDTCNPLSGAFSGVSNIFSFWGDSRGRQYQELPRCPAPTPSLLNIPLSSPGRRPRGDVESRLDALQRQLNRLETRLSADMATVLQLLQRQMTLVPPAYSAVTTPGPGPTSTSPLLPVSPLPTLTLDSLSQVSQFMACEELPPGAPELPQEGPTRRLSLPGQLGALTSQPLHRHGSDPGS

hERG potassium channel [5] = molecular target: hERG potassium channel (Homo sapiens, UniProt Q12809); test: whole-cell patch clamp, tail current inhibition
hERG potassium channel [6] = molecular target: hERG potassium channel (Homo sapiens, UniProt Q12809, V625A); test: whole-cell patch clamp, inhibition at […]

Chain of hERG potassium channel (Homo sapiens, UniProt Q12809, T623A) (Q12809 whole entry T623A): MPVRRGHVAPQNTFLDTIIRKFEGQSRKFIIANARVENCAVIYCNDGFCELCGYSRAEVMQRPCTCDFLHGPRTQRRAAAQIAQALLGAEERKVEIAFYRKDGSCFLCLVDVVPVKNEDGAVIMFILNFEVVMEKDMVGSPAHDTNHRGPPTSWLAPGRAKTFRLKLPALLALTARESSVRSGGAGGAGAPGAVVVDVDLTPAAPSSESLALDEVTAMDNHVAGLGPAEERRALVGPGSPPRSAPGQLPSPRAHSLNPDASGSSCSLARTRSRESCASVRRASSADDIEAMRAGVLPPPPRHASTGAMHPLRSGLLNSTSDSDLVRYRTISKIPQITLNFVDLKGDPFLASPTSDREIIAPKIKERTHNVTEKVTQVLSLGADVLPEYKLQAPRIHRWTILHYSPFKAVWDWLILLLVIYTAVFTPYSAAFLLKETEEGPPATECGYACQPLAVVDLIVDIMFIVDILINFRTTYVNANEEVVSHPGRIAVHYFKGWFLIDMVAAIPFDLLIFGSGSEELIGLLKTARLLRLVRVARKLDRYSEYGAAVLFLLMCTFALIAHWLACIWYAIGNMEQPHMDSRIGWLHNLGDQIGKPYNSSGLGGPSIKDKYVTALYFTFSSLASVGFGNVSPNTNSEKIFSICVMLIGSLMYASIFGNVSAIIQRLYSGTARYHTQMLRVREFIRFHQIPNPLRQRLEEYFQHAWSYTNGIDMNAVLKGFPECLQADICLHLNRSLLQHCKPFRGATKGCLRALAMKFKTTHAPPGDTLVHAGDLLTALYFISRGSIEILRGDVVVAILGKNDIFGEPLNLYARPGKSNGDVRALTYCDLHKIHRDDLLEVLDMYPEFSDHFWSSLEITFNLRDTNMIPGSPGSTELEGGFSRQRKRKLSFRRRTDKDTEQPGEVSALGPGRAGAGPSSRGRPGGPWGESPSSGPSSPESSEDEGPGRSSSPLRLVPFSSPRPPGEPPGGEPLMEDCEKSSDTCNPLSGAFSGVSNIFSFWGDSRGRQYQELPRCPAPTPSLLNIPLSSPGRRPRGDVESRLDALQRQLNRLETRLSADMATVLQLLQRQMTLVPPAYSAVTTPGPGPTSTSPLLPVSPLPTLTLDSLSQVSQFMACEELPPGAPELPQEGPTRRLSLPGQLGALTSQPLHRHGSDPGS
Chain of hERG potassium channel (Homo sapiens, UniProt Q12809, S624A) (Q12809 whole entry S624A): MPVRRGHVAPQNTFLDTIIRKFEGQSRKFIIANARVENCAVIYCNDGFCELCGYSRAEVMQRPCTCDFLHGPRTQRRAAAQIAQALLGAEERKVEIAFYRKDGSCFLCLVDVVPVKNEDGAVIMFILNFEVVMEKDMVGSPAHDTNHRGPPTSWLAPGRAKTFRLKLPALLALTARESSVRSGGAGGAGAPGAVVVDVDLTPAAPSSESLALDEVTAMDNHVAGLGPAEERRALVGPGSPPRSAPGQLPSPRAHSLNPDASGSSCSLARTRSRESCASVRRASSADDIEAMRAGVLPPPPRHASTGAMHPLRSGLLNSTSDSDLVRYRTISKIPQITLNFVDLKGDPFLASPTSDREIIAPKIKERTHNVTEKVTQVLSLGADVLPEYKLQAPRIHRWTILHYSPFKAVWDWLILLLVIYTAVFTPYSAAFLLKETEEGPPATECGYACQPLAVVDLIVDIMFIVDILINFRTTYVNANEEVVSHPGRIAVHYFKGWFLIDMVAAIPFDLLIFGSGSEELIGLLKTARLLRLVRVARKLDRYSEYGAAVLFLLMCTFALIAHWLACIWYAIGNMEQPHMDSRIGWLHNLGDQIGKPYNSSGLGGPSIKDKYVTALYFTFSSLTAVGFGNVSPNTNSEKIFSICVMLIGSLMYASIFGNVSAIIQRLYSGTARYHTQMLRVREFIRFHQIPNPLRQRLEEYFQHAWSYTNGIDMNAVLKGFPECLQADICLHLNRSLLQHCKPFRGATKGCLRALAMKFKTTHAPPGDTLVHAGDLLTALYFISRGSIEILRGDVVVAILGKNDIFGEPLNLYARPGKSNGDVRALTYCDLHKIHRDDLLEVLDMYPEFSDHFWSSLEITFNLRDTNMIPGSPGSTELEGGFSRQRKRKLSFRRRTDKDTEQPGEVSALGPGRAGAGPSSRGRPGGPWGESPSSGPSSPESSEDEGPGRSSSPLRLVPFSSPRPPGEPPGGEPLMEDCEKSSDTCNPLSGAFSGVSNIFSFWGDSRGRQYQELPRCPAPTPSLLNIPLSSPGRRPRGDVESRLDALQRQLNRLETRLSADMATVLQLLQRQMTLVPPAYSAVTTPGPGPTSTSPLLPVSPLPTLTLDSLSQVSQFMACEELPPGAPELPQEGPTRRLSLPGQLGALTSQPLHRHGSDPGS

With `CC1=C(O)C(=O)C=C2C1=CC=C1[C@@]2(C)CC[C@@]2(C)[C@@H]3C[C@](C)(C(=O)O)CC[C@]3(C)CC[C@]12C` [Celastrol] the IC50 (hERG potassium channel [1]) was 4000 ± 300 nM, the inhibition at 1 µM (hERG potassium channel [2]) was 36.2 ± 0.4% and the inhibition at 1 µM (hERG potassium channel [3]) was 34.5 ± 1.5%. For the same molecule, the inhibition at 1 µM (hERG potassium channel [4]) was 56.3 ± 1.6%, the IC50 (hERG potassium channel [5]) was 830 nM and the inhibition at 1 µM (hERG potassium channel [6]) was 51.6 ± 4.3%.
